Data from PubChem BioAssay AID1421 (Emory University Molecular Libraries Screening Center, 2008).
Calls of active or inactive are those of the source. No rule for the calls is given here.

Molecular target: Prostaglandin E2 receptor EP2 subtype (Homo sapiens) (UniProt P43116)
Assay: compounds shifting PGE2 potency at EP2 – cell-based, human EP2, PGE2 EC50 shift, dose response (AID 1421)
Conditions: EP2-expressing cells, PGE2 EC50 shift by compound; for PGE2 EC50 with compound: measured here: PGE2 EC50 at 6.7 uM compound

Sequence of Prostaglandin E2 receptor EP2 subtype (Homo sapiens) (P43116 whole entry, looked up): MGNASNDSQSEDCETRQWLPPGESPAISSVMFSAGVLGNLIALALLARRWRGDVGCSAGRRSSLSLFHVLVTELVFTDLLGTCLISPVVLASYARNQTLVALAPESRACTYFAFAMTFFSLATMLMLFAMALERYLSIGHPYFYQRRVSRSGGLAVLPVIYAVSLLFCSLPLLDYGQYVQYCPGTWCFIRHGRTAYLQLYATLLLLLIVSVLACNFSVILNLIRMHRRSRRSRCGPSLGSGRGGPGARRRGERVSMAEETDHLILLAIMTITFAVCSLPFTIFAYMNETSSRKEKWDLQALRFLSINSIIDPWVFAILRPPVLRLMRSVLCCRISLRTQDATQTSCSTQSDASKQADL

Compound | PGE2 EC50 with compound [nM] | outcome
Cc1ccc(O)c(N=Cc2cc(Cc3ccccc3)cc([N+](=O)[O-])c2O)c1 | 1.07 | –
Cc1ccc(-n2c(SCC(=O)Nc3ccc4c(c3)OCO4)nnc2-c2ccoc2C)cc1 | 1.18 | –
COc1ccc(C2=NN(C(=O)c3cccs3)C(O)(C(F)(F)F)C2)cc1 (centres undefined) | 3 | –
CCOC(=O)CCN(Cc1sccc1C)S(=O)(=O)c1ccc(F)cc1 | 1.15 | –

Next, values leading:

PGE2 EC50 with compound [nM] | outcome | Compound
2.69 | active | Cc1ccc2nc(Nc3ccc4[nH]c(=O)[nH]c4c3)c(-n3nc(C)cc3C)nc2c1
0.96 | – | CCOC(=O)CCCCCCCCCCCCC1C=CCC1 (centres undefined)
0.95 | active | COC(=O)c1c(NC(=O)C2CC2)sc2c1CCCC2
